Measured values published in US6569878B1, “Substituted 4-amino-thiazol-2-yl compounds as cyclin-dependent kinase inhibitors” (Agouron Pharmaceuticals Inc., priority 1997, dated 2003).

Columns and labels:
[1] = target: T1, complex of human CDK4 and cyclin D3 (Homo sapiens, UniProt P11802); assay: Inhibition of CDK4/cyclin D retinoblastoma kinase activity (D-type cyclin is D3); type: biochemical; settings: superscript a: D-type cyclin is D3; apparent Ki; read-out: Ki CDK 4/D
T1 construct: made in house; host or cells: insect cells, co-infected with baculovirus
In short: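 Apparent Ki derived by fitting background-corrected activity to competitive (or, for tight binders, competitive tight-binding) equations with measured ATP Km. Rb phosphorylation by radiolabelled ATP was measured at 30°C, 20 min standard or 60 min at 5 nM complex for tight binders, via nitrocellulose capture and phosphorimager.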

CDK2/cyclin A = target: T2, CDK2/cyclin A (Homo sapiens, UniProt P24941); assay: Inhibition of CDK2/cyclin A retinoblastoma kinase activity; type: biochemical; settings: read-out: Ki CDK 2/A
T2 construct: made in house; host or cells: CDK2: insect cells (baculovirus); cyclin A: E. coli, then limited proteolysis
In short: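 Baculovirus-expressed CDK2 with excess proteolyzed cyclin A (or purified complex), 150 nM or 5 nM, phosphorylating an Rb fragment with 25 μM [32/33P]ATP, pH 7.4, 30° C, 20 min. Filter-captured radioactivity by phosphorimager; apparent Ki from fits to competitive or tight-binding competitive inhibition using measured ATP Km.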

U2-OS = assay: Inhibition of cell growth, MTT assay, U2-OS; type: cell-based; settings: Homo sapiens, U2OS
In short: (§1)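 Cells rested 4 h after plating, then exposed to graded compound concentrations in 0.5% (v/v) DMSO for four to six days (cell-type dependent) at 37° C, 5% CO2. Viability was read by MTT (0.2 mg/mL final, 4 h at 37° C), with DMSO-solubilized formazan measured at 540 nm.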

Saos-2 = assay: Inhibition of cell growth, MTT assay, Saos-2; type: cell-based; settings: Homo sapiens; Saos-2, MTT assay
In short: as §1

[2] = target: T3, human CDK1 (cdc2) and cyclin B (Homo sapiens, UniProt P06493); assay: Inhibition of CDK1(cdc2)/cyclin B histone H1 kinase activity; type: biochemical; settings: read-out: Ki CDK 1/B
T3 construct: purchased New England Biolabs (Beverly Mass.)
In short: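 CDK1/cyclin B (commercial, or CDK1/GST-cyclin B1 from co-infected insect cells) phosphorylated histone H1 with 25 μM [32/33P]ATP at pH 7.4, 30° C for 20 min, 2% DMSO. Product captured on phosphocellulose and read by phosphorimager; apparent Ki from competitive or tight-binding fits, with Km for ATP determined.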

[3] = target: T4, complex of human CDK4 and genetically truncated (1-264) cyclin D3 (Homo sapiens, UniProt P11802); assay: Inhibition of CDK4/cyclin D retinoblastoma kinase activity (D-type cyclin is truncated D3); type: biochemical; settings: superscript c: D-type cyclin is truncated D3; read-out: Ki CDK 4/D
T4 construct: made in house; host or cells: insect cells, co-infected with baculovirus
Description: Cyclin-dependent kinase activity was measured by quantifying the enzyme-catalyzed, time-dependent incorporation of radioactive phosphate from [^32P]ATP or [^33P]ATP into a protein substrate. Unless noted otherwise, assays were performed in 96-well plates in a total volume of 50 μL, in the presence of 10 mM HEPES (N-[2-hydroxyethyl]piperazine-N′-[2-ethanesulfonic acid]) (pH 7.4), 10 mM MgCl2, 25 μM adenosine triphosphate (ATP), 1 mg/mL ovalbumin, 5 μg/mL leupeptin, 1 mM dithiothreitol, 10 mM β-glycerophosphate, 0.1 mM sodium vanadate, 1 mM sodium fluoride, 2.5 mM ethylene glycol-bis(β-aminoethyl ether)-N,N,N′N′-tetraacetic acid (EGTA), 2% (v/v) dimethylsulfoxide, and 0.03-0.4 μCi [^32/33P]ATP per reaction. Reactions were initiated with enzyme, incubated at 30° C., and terminated after 20 minutes by the addition of ethylenediaminetetraacetic acid (EDTA) to 250 mM. The phosphorylated substrate was then captured on a nitrocellulose or phosphocellulose membrane using a 96-well filtration manifold, and unincorporated radioactivity was removed by repeated washing with 0.85% phosphoric acid. Radioactivity was quantified by exposing the dried membranes to a phosphorimager.
Apparent Ki values were measured by assaying enzyme activity in the presence of different inhibitor compound concentrations and subtracting the background radioactivity measured in the absence of enzyme. The kinetic parameters (kcat, Km for ATP) were measured for each enzyme under the usual assay conditions by determining the dependence of initial rates on ATP concentration. Inhibition data were fit to an equation for competitive inhibition using Kaleidagraph (Synergy Software), or were fit to an equation for competitive tight-binding inhibition using the software KineTic (BioKin, Ltd.).
A complex of human CDK4 and cyclin D3, or a complex of cyclin D1 and a fusion protein of human CDK4 and gluathione-S-transferase (GST-CDK4), or a complex of human CDK4 and genetically truncated (1-264) cyclin D3, was purified using traditional biochemical chromatographic techniques from insect cells that had been co-infected with the corresponding baculovirus expression vectors (see e.g., Meijer and Kim, “Chemical Inhibitors of Cyclin-Dependent Kinases,” Methods in Enzymol,. vol. 283 (1997), pp. 113-128.). The enzyme complex (5 or 50 nM) was assayed with 0.3-0.5 μg of purified recombinant retinoblastoma protein fragment (Rb) as a substrate. The engineered Rb fragment (residues 386-928 of the native retinoblastoma protein; 62.3 kDa) contains the majority of the phosphorylation sites found in the native 106-kDa protein, as well as a tag of six histidine residues for ease of purification. Phosphorylated Rb substrate was captured by microfiltration on a nitrocellulose membrane and quantified using a phosphorimager as described above. For measurement of tight-binding inhibitors, the enzyme complex concentration was lowered to 5 nM, and the assay duration was extended to 60 minutes, during which the time-dependence of product formation was linear.

HCT116 = assay: Inhibition of cell growth, MTT assay, HCT116; type: cell-based, human; settings: Homo sapiens, HCT-116
In short: as §1

[4] = system: pRb phosphorylation at serine 780 in HCT-116 cells; assay: pRb immunoblotting (anti-phospho-Rb (ser780) antibody); type: cell-based, human; settings: five micromolar of each compound for 12 hours, western blot, anti-phospho-Rb (Ser 780) antibody
Description: (§2) The ability of compounds to inhibit phosphorylation of the retinoblastoma protein (pRb) was assessed by western blot analysis. An anti-Rb antibody was used to measure the conversion of hyper-phosphorylated pRb to hypo-phosphorylated pRb.
(§3) Human colon tumor cells (HCT-116 cells; 5×10^6) were plated on […] dishes and allowed to grow overnight. Five micromolar of each compound was added for 12 hours. The cells were then collected and centrifuged. The cell pellets were lysed by the addition of 100 μL lysis buffer (50 mM HEPES (pH 7.0), 250 mM NaCl, 5 mM ethylenediaminetetraacetic acid, 0.1% Nonidet P-40, 1 mM dithiothreitol, 2 mM sodium pyrophosphate, 1 mM sodium orthovanadate, 1 μg/ml aprotonin, 1 μg/ml leupeptin, 50 μg/ml phenylmethylsulfonyl fluoride). Forty micrograms of protein were separated by sodium dodecyl sulfate-polyacrylamide gel electrophoresis (SDS-PAGE) on a 6% gel. The proteins were transferred to nitrocellulose and blocked with 5% blocking buffer in Tris-buffered saline overnight. The anti-Rb antibody (Pharmingen), the anti-phospho-Rb (Ser 780) antibody (MBL), and secondary antibody were incubated for 1 hour at room temperature followed by three wash steps in 0.01% Tween-20 in Tris-buffered saline. The Rb protein was detected using chemiluminescence according to the manufacturer (Amersham).

[5] = system: phosphorylation of the retinoblastoma protein (pRb) in HCT-116 cells; assay: pRb immunoblotting (anti-Rb antibody); type: cell-based, human; settings: five micromolar of each compound for 12 hours, western blot
Description: as §2, §3

T1 sequence (P11802 whole entry): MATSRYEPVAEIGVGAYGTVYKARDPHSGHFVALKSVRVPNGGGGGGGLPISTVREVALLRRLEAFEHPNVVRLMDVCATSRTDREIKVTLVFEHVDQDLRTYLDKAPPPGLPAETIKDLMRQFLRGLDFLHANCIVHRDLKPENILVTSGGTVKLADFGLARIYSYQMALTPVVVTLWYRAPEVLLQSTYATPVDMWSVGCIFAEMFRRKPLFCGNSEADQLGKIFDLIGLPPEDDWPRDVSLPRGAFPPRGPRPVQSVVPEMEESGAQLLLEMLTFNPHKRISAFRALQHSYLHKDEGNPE
T1 sequence (P30281 whole entry partner): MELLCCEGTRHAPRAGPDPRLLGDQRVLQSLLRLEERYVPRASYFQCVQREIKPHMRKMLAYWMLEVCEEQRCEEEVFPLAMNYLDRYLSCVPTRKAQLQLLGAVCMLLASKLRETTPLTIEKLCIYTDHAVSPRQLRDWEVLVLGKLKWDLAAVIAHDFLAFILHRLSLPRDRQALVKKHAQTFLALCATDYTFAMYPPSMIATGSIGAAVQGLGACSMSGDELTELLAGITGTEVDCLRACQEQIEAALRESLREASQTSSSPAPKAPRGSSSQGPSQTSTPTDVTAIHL
T4 sequence (P11802 whole entry, the tested form may be a part): as the sequence (P11802 whole entry) above
T4 sequence (P30281 1-264 partner limits assumed): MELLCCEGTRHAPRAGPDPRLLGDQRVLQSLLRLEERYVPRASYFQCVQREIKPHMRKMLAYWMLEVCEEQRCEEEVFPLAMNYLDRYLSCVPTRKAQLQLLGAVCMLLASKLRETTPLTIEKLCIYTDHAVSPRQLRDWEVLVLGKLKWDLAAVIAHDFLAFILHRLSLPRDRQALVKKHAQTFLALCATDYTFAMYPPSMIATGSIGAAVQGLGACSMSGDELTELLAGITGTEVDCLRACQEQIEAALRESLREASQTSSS
T3 sequence (P06493 whole entry): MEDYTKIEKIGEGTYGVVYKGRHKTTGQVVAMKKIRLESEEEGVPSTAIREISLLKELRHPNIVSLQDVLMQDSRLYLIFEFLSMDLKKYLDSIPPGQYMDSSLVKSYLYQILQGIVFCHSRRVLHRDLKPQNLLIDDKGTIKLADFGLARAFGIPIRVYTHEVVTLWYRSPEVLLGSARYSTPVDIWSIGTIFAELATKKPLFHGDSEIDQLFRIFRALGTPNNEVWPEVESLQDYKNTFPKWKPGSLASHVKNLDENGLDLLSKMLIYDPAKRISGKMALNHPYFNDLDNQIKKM
T3 sequence (P14635 whole entry partner): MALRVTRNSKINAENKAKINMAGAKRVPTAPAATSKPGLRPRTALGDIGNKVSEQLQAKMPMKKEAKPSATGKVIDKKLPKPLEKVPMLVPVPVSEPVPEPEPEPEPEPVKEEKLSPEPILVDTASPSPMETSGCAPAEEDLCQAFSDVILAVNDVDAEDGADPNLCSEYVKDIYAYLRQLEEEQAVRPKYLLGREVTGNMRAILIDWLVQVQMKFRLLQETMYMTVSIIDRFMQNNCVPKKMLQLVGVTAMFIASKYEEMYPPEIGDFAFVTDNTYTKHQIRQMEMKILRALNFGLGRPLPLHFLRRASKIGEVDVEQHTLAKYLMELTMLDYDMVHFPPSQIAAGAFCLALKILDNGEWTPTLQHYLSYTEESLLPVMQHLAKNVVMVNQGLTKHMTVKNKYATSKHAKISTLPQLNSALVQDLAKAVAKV

Compound	Ki [1]	Ki (CDK2/cyclin A)	IC50 (U2-OS)	IC90 (U2-OS)	Ki [2]	Ki [3]	IC50 (HCT116)	IC90 (HCT116)	IC50 (Saos-2)	IC90 (Saos-2)	Inhibits pRb (ser 780) phosphorylation [4]	Inhibits pRb phosphorylation [5]
Nc1nc(Nc2ccc(S(N)(=O)=O)cc2)sc1C(=O)c1c(F)cc(F)cc1F [C(115), 4-[4-Amino-5-(2,4,6-trifluoro-benzoyl)-thiazol-2-yl-amino]-benzenesulfonamide]	57 nM	18 nM	2700 nM	5000 nM	50 nM	55 nM			800 nM	2200 nM		
Cc1ccsc1C(=O)c1sc(Nc2ccc(N(C)CCN(C)C)cc2)nc1N [C(117), (4-Amino-2-{4-[(2-dimethylamino-ethyl)-methyl-amino]-phenylamino}-thiazol-5-yl)-(3-methyl-thiophen-2-yl)-methanone]		423 nM	900 nM	1700 nM	417 nM	10 nM	1800 nM	2900 nM	890 nM	1500 nM		
C[C@@H]1CN(c2ccc(Nc3nc(N)c(C(=O)c4c(F)cccc4F)s3)cc2)CCN1C [C(124), {4-Amino-2-[4-(3R,4-dimethyl-piperazin-1-yl)-phenylamino]-thiazol-5-yl}-(2,6-difluoro-phenyl)-methanone]		611 nM	1300 nM	2500 nM	680 nM	17 nM	540 nM	1600 nM	980 nM	1600 nM		
Nc1nc(Nc2ccc(S(N)(=O)=O)cc2)sc1C(=O)c1sc(Br)cc1Br [C(73), 4-[4-Amino-5-(3,5-dibromo-thiophene-2-carbonyl)-thiazol-2-ylamino]-benzenesulfonamide]	6.3 nM	6.8 nM	4100 nM	9500 nM	20 nM		1400 nM	3400 nM	1300 nM	5000 nM	+	+
C[C@H]1CN(c2ccc(Nc3nc(N)c(C(=O)c4c(F)cccc4F)s3)cc2)CCN1C [C(125), {4-Amino-2-[4-(3S,4-dimethyl-piperazin-1-yl)-phenylamino]-thiazol-5-yl}-(2,6-difluoro-phenyl)-methanone]		602 nM	1200 nM	2300 nM	650 nM	5.4 nM	620 nM	1800 nM	900 nM	1500 nM		
Cc1cc([N+](=O)[O-])sc1C(=O)c1sc(Nc2ccc(N3CCN(C)CC3)cc2)nc1N [C(94), {4-Amino-2-[4-(4-methyl-piperazin-1-yl)-phenylamino]-thiazol-5-yl}-(3-methyl-5-nitro-thiophen-2-yl)-methanone]	41 nM	1040 nM	3400 nM	6000 nM	1410 nM		1300 nM	3100 nM	2200 nM	5000 nM	+	+

More lines, main results first:

Ki [1]	Ki (CDK2/cyclin A)	IC50 (U2-OS)	IC90 (U2-OS)	Ki [2]	Ki [3]	IC50 (HCT116)	IC90 (HCT116)	Compound	IC50 (Saos-2)	IC90 (Saos-2)	Inhibits pRb (ser 780) phosphorylation [4]	Inhibits pRb phosphorylation [5]
15 nM	572 nM	2900 nM	5200 nM	2000 nM	19 nM	900 nM	2800 nM	Nc1nc(Nc2ccc(N3CCNCC3)cc2)sc1C(=O)c1c(F)cc(F)cc1F [J(3), [4-Amino-2-(4-piperazin-1-yl-phenylamino)-thiazol-5-yl]-(2,4,6-trifluoro-phenyl)-methanone]	2200 nM	4900 nM		
40.7 nM	350 nM	1000 nM	20000 nM	200 nM		1000 nM	2600 nM	COc1ccc(Nc2nc(N)c(C(=O)c3ccccc3C#N)s2)cc1 [F, 2-[4-Amino-2-(4-methoxy-phenylamino)-thiazole-5-carbonyl]-benzonitrile]	1000 nM	1600 nM	−	−
	548 nM	510 nM	1300 nM	511 nM	8.1 nM	260 nM	600 nM	CC1(C)CN(c2ccc(Nc3nc(N)c(C(=O)c4c(F)cccc4F)s3)cc2)CCN1 [J(6), {4-Amino-2-[4-(3,3-dimethyl-piperazin-1-yl)-phenylamino]-thiazol-5-yl}-(2,6-difluoro-phenyl)-methanone]	470 nM	770 nM		
